These results are taken from publication PMC10176470, “Engaging a Non-catalytic Cysteine Residue Drives Potent and Selective Inhibition of Caspase-6” (Journal of the American Chemical Society, 2023).

Experiment [1] has as its target T1, proteins of HEK293T cells transiently overexpressing caspase-6 (Homo sapiens, UniProt P54136).
T1 sequence (P54136 1-660): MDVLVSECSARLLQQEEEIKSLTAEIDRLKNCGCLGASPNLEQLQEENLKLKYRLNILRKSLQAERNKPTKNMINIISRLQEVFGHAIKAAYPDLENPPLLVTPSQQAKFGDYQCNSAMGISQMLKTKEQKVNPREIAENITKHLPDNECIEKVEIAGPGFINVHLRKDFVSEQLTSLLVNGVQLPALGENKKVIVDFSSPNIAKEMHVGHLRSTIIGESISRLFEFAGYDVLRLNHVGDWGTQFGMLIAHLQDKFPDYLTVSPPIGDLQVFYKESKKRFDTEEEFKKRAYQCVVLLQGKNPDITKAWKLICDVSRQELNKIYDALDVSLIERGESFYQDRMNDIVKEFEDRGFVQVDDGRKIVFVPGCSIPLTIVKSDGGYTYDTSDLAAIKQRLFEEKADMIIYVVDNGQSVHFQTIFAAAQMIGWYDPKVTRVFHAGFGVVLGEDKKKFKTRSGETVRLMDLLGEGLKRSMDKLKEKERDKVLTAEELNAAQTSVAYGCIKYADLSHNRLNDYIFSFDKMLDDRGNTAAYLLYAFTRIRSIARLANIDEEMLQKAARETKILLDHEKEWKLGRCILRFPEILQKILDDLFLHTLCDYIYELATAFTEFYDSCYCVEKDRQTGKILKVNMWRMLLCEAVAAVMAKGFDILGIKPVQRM
In words: SILAC proteomics / in-gel fluorescence, competition of probe 13-t labeling by 3a.
Protocol: (§1) Cells were lysed, and heavy and light SILAC lysates were combined in a 1:1 ratio and subjected to CuAAC reaction with azido-biotin to biotinylate probe-labeled proteins for subsequent capture on streptavidin-coated beads. Bead-bound proteins were split for analysis by in-gel fluorescence and tryptic digestion on-bead for LC–MS/MS analysis.
(§2) SILAC labeling and alkyne probe treatment: HEK293T cells were seeded into 8x 15 cm plates at
(§3) a density of 500,000 cells/plate. 4 of these plates were grown in light SILAC DMEM and 4 were
(§4) grown in heavy SILAC DMEM all containing 10% FBS and 4.5g/L glucose. The next day, all 8
(§5) plates were transfected with a pCMV6-Entry plasmid coding for caspase-6-myc-DDK lacking the
(§6) prodomain. After 24 hours, media was replaced with fresh SILAC growth media containing 4.5 g/L
(§7) glucose and 3% FBS. 24 hours later the plates were treated with probe and inhibitor for 1 hours as
(§8) follows: 2 of the light plates were treated with vehicle, 2 light plates and 2 heavy plates treated with
(§9) for 60 minutes. After treatment, media was removed, and cells were washed with 15 mL PBS for 5
(§10) minutes. Cells were then harvested by scraping in cold PBS and lysed in the presence of Roche
(§11) complete protease inhibitors. Lysates were clarified by centrifugation at 10,000xg for 10 minutes and
(§12) the protein in the supernatant was quantified by BCA assay.
(§13) Proteomics assay: 1 mg of each lysate was diluted to 2mg/ml in PBS with Roche complete protease
(§14) inhibitors. To this was added 0.1 mM biotin-azide, 1 mM tris(2-carboxyethyl)phosphine (TCEP), 0.1
(§15) mM Tris((1-benzyl-4-triazolyl)methyl)amine (TBTA) ligand, and 1 mM CuSO4 in a final volume of
(§16) 0.5 mL. The reaction was incubated at room temperature for 1 hour and was vortexed every 15
(§17) minutes. After 1 hour, proteins are precipitated and are pelleted by centrifuging at 16,000xg for 4
(§18) min at 4 °C. The supernatants were discarded, and the pellets were solubilized with 0.5 mL cold
(§19) The cold methanol wash was then repeated, and the washed
(§20) pellets were resuspended in 1 mL of 1.2% SDS and sonicated until clear. The samples were heat
(§21) denatured at 80-90 °C for 5 minutes and any insoluble particles were removed by centrifugation at
(§22) 6,500xg for 5 minutes. The 1 mL supernatant was transferred to a 15 mL conical tubes containing 5
(§23) mL of PBS and 150 µL of washed neutravidin beads were added. The samples were incubated for 2
(§24) hours at 4 °C while rotating, at which point the samples were warmed to resolubilize any precipitated
(§25) SDS. The beads were pelleted by centrifugation at 1400xg for 3 min and washed for 10 minutes with
(§26) the following solutions: 2x 1% NP-40, 2x PBS + 1 M NaCl, and 2x 50 mM ammonium bicarbonate
(§27) (ABC) + 2 M urea. The beads were then transferred to a 1.5 mL microcentrifuge tube using 2x250
(§28) µL 100 mM Tris pH 8.0 + 4 M Guanidium hydrochloride (final volume 500 µL).

In experiment [2] the target is proteins of HEK293T cells transiently overexpressing caspase-6 (Homo sapiens, UniProt P11388). The experiment is described as above. As to conditions: Comp; protein TOP2A P11388.
Sequence of proteins of HEK293T cells transiently overexpressing caspase-6 (Homo sapiens, UniProt P11388) (P11388 whole entry): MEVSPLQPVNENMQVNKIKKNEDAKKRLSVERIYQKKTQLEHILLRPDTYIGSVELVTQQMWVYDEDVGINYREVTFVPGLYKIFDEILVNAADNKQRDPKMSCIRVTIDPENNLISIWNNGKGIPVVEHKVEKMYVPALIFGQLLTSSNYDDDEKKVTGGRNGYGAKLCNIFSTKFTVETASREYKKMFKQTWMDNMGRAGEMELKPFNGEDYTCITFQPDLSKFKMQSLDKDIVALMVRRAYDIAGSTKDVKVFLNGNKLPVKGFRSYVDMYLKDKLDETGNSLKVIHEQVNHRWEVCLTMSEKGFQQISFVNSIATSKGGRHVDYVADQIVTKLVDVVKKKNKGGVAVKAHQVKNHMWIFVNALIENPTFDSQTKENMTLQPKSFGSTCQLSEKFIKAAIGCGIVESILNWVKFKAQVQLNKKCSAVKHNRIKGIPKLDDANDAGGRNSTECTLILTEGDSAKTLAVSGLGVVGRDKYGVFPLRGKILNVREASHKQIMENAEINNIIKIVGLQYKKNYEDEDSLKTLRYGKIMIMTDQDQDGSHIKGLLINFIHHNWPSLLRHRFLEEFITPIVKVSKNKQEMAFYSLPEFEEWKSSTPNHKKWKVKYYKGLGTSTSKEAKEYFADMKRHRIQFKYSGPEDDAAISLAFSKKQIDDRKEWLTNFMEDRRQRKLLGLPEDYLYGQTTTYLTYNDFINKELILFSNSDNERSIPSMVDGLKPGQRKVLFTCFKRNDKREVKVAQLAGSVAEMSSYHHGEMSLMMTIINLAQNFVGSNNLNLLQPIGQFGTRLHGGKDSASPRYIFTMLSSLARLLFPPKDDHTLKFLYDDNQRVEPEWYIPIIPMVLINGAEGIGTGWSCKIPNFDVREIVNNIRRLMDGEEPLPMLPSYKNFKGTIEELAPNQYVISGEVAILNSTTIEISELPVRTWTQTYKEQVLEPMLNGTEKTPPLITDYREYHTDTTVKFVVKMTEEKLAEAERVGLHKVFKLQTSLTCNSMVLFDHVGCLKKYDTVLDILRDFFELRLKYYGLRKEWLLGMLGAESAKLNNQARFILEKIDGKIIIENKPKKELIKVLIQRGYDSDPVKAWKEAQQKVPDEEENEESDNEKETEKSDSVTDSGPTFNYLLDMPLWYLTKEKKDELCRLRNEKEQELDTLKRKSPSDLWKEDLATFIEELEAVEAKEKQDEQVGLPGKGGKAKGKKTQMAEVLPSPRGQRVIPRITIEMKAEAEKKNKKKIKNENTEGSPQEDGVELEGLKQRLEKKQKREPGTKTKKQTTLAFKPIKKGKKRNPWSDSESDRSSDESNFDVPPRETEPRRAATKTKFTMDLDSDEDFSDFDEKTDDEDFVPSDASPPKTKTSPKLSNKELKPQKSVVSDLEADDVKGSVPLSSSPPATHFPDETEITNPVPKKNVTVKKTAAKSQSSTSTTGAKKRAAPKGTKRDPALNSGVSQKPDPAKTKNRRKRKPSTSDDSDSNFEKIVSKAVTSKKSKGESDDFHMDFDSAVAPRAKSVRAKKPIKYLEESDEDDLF
Protocol: as §1, §2, §3, §4, §5, §6, §7, §8, §9, §10, §11, §12, §13, §14, §15, §16, §17, §18, §19, §20, §21, §22, §23, §24, §25, §26, §27, §28
The target in experiment [3] is proteins of HEK293T cells transiently overexpressing caspase-6 (Homo sapiens, UniProt Q9P258). The experiment is described as above. As to conditions: Comp; protein RCC2 Q9P258.
Sequence of proteins of HEK293T cells transiently overexpressing caspase-6 (Homo sapiens, UniProt Q9P258) (Q9P258 whole entry): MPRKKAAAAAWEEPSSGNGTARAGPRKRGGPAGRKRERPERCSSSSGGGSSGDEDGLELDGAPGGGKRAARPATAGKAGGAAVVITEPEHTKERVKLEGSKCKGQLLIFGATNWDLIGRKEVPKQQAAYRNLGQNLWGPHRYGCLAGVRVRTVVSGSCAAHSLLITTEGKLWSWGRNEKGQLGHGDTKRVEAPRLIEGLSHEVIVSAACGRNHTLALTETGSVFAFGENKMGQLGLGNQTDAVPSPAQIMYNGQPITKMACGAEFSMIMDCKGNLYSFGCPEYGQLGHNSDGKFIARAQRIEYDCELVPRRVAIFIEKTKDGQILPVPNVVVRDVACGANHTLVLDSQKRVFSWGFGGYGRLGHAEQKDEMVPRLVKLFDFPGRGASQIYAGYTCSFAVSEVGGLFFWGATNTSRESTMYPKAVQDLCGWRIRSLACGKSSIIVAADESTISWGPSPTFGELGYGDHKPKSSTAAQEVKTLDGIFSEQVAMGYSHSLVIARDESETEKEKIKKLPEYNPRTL
Protocol: as §1, §2, §3, §4, §5, §6, §7, §8, §9, §10, §11, §12, §13, §14, §15, §16, §17, §18, §19, §20, §21, §22, §23, §24, §25, §26, §27, §28
Experiment [4] deals with proteins of HEK293T cells transiently overexpressing caspase-6 (Homo sapiens, UniProt P61247). The experiment is described as above. The settings on record: Comp; protein RPS3A P61247.
Protocol: as §1, §2, §3, §4, §5, §6, §7, §8, §9, §10, §11, §12, §13, §14, §15, §16, §17, §18, §19, §20, §21, §22, §23, §24, §25, §26, §27, §28
For experiment [5], the target named is proteins of HEK293T cells transiently overexpressing caspase-6 (Homo sapiens, UniProt P31939). Described as above. As to conditions: Comp; protein ATIC P31939.
Sequence of proteins of HEK293T cells transiently overexpressing caspase-6 (Homo sapiens, UniProt P31939) (P31939 whole entry): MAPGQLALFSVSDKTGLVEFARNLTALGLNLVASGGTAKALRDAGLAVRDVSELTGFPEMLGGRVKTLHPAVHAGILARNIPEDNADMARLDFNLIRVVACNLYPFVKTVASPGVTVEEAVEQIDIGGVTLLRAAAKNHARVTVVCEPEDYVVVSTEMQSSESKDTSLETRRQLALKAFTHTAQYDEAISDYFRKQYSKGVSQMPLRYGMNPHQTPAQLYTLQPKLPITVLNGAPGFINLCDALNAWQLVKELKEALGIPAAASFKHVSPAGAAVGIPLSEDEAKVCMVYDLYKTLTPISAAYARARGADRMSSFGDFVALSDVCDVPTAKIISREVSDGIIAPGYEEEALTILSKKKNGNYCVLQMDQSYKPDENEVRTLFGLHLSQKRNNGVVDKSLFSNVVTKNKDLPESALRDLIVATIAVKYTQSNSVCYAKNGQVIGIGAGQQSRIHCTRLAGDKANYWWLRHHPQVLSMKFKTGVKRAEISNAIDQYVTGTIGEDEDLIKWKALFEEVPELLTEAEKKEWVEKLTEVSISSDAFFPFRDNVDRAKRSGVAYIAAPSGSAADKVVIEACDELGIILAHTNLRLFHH
Protocol: as §1, §2, §3, §4, §5, §6, §7, §8, §9, §10, §11, §12, §13, §14, §15, §16, §17, §18, §19, §20, §21, §22, §23, §24, §25, §26, §27, §28
Experiment [6] deals with proteins of HEK293T cells transiently overexpressing caspase-6 (Homo sapiens, UniProt P39748). The experiment is described as above. As to conditions: Comp; protein FEN1 P39748.
Sequence of proteins of HEK293T cells transiently overexpressing caspase-6 (Homo sapiens, UniProt P39748) (P39748 whole entry): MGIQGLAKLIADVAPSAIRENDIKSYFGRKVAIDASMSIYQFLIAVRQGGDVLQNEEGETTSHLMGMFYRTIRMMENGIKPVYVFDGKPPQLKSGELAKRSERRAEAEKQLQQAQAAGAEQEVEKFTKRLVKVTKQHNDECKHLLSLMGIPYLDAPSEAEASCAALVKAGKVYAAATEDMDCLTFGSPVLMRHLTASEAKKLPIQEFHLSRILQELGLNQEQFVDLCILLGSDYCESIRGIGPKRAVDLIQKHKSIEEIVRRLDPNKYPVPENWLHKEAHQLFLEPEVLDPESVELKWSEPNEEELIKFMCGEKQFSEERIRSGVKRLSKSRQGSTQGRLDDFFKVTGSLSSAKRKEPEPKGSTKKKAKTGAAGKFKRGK
Protocol: as §1, §2, §3, §4, §5, §6, §7, §8, §9, §10, §11, §12, §13, §14, §15, §16, §17, §18, §19, §20, §21, §22, §23, §24, §25, §26, §27, §28
The target of experiment [7] is proteins of HEK293T cells transiently overexpressing caspase-6 (Homo sapiens, UniProt P40939). The description is as above. As to conditions: Comp; protein HADHA P40939.
Sequence of proteins of HEK293T cells transiently overexpressing caspase-6 (Homo sapiens, UniProt P40939) (P40939 37-763): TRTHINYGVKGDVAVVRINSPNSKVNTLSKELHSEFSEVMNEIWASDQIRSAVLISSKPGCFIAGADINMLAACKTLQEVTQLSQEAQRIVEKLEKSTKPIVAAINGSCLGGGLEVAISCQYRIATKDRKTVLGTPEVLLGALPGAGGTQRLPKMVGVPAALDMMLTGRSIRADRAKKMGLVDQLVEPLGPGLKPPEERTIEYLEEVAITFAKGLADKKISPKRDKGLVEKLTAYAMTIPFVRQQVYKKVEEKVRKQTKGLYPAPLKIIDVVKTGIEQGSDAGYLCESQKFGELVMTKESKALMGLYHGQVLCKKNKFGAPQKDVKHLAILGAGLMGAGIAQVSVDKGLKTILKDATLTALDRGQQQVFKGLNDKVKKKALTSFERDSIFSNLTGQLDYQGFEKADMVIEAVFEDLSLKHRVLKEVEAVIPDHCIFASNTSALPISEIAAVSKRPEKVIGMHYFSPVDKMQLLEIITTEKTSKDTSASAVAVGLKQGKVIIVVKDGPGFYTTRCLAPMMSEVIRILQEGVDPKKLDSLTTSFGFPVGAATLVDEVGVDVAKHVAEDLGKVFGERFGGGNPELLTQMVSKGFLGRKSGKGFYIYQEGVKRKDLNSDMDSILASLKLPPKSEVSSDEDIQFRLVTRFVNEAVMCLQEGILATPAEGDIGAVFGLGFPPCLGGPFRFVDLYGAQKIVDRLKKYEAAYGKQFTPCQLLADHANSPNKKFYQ
Protocol: as §1, §2, §3, §4, §5, §6, §7, §8, §9, §10, §11, §12, §13, §14, §15, §16, §17, §18, §19, §20, §21, §22, §23, §24, §25, §26, §27, §28
In experiment [8] the target is T2, proteins of HEK293T cells transiently overexpressing caspase-6 (Homo sapiens, UniProt Q8WUM4).
T2 sequence (Q8WUM4 1-868): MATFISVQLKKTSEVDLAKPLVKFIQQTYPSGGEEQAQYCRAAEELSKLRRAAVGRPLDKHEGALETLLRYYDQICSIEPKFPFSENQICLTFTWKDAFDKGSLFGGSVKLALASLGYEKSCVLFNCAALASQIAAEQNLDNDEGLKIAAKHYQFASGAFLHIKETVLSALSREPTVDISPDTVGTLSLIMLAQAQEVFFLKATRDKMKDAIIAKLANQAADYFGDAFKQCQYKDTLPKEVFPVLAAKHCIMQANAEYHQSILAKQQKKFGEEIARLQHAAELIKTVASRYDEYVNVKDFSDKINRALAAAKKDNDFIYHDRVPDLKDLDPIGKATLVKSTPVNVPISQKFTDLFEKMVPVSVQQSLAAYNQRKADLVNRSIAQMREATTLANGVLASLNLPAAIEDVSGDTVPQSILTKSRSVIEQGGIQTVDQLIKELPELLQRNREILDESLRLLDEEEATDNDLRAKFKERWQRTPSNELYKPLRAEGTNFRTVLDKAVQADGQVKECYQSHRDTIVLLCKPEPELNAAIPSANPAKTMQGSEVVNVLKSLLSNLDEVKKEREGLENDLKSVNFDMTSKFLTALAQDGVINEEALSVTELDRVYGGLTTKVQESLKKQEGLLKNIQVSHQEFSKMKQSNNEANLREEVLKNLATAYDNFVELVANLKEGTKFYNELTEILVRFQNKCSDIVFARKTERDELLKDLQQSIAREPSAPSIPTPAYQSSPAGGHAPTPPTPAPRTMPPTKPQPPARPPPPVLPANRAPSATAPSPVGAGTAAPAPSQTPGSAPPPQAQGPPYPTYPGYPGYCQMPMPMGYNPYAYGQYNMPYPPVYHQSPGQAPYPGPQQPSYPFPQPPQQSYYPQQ
The experiment is described as above.
Protocol: as §1, §2, §3, §4, §5, §6, §7, §8, §9, §10, §11, §12, §13, §14, §15, §16, §17, §18, §19, §20, §21, §22, §23, §24, §25, §26, §27, §28

Experiment [9] deals with proteins of HEK293T cells transiently overexpressing caspase-6 (Homo sapiens, UniProt P12277). The description is as above. The settings on record: Comp; protein CKB P12277.
Sequence of proteins of HEK293T cells transiently overexpressing caspase-6 (Homo sapiens, UniProt P12277) (P12277 whole entry): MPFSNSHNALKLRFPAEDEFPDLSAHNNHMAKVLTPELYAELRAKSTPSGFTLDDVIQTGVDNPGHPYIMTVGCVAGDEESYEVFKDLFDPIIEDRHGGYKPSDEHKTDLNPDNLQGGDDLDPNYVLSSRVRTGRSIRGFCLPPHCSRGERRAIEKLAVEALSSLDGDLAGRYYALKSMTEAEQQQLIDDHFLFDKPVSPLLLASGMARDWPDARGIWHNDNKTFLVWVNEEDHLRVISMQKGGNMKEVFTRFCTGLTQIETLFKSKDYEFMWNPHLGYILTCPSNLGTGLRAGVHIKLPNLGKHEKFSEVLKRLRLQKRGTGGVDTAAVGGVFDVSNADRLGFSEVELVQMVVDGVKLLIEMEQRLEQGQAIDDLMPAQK
Protocol: as §1, §2, §3, §4, §5, §6, §7, §8, §9, §10, §11, §12, §13, §14, §15, §16, §17, §18, §19, §20, §21, §22, §23, §24, §25, §26, §27, §28
For experiment [10], the target named is proteins of HEK293T cells transiently overexpressing caspase-6 (Homo sapiens, UniProt P63244). The experiment is described as above. As to conditions: Comp; protein GNB2L1 P63244.
Protocol: as §1, §2, §3, §4, §5, §6, §7, §8, §9, §10, §11, §12, §13, §14, §15, §16, §17, §18, §19, §20, §21, §22, §23, §24, §25, §26, §27, §28
Experiment [11] concerns the target proteins of HEK293T cells transiently overexpressing caspase-6 (Homo sapiens, UniProt P62701). Described as above. As to conditions: Comp; protein RPS4X P62701.
Protocol: as §1, §2, §3, §4, §5, §6, §7, §8, §9, §10, §11, §12, §13, §14, §15, §16, §17, §18, §19, §20, §21, §22, §23, §24, §25, §26, §27, §28
In another experiment the target is caspase-6 (Homo sapiens, UniProt P55212). In words: biochemical.
Sequence of caspase-6 (P55212 194-293): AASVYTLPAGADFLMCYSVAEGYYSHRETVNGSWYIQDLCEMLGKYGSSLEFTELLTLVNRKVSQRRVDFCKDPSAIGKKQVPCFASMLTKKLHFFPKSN
Sequence of caspase-6 (P55212 30-179): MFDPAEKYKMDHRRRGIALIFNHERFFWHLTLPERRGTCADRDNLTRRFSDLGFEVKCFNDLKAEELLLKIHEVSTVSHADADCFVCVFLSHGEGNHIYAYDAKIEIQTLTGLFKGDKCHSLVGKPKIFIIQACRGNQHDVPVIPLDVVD
The mark [12] stands for this setting: protein RARS (P54136), Exp Comp, analysis C6, p 0.0312, 7 peptides.
The mark [13] stands for this setting: protein PDCD6IP (Q8WUM4), Exp Comp, analysis C6, p 0.5000, 2 peptides.

In the case of `C=CS(=O)(=O)N1C[C@H](C(=O)Nc2ccc(OC(F)(F)F)cc2)C[C@@H](c2ccccc2)C1` [3a], the enrich.exp.med in experiment [1] (Comp, protein RARS P54136) amounted to 1.077; in experiment [2] it was 0.7274; in experiment [3], 0.5769; in experiment [4], 0.7684; in [5] it was 0.7149; in experiment [6], 0.6295. The enrich.exp.med is 0.6753 in experiment [7]; 1 in experiment [8] (Comp, protein PDCD6IP Q8WUM4); 0.6631 in experiment [9]; 0.7266 in [10]; 0.5823 in experiment [11]. The enrich.exp.med.lin in [1] (setting [12]) was 2.11; in experiment [8] (setting [13]), 2. For the same molecule, the enrich.exp.med.log2 in experiment [1] (setting [12]) is given as 1.077; in experiment [8] (setting [13]), 1.
Regarding `C#CCOc1ccc([C@@H]2C[C@@H](C(=O)Nc3ccc(OC(F)(F)F)cc3)CN(S(=O)(=O)C=C)C2)cc1` (relative stereo) [13-t], on caspase-6, the IC50 stood at 0.048 ± 0.002 µM.
